Values of other authors, collected in patent US11439647B2 (Janssen Pharmaceutica NV, priority 2020, dated 2022).

water solubility: extreme low
SMILES: CCCCCCCCCCCCCCCC(=O)OC1CCCn2c1nc(C)c(CCN1CCC(c3noc4cc(F)ccc34)CC1)c2=O (racemic) [paliperidone palmitate, (±)-3-[2-[4-(6-fluoro-1,2-benzisoxazol-3-yl)-1-piperidinyl]ethyl]-6,7,8,9-tetrahydro-2-methyl-4-oxo-4H-pyrido[1,2-c]pyrimidin-9-yl hexadecanoate]
